Where two headings read alike, the source gives them in different places.

Series [1] can be described thus: Cellular toxicity assay in human PBM cells. The format is cell-based. How it is done: (§1) The toxicity of the compounds was assessed in Vero, human PBM, CEM (human lymphoblastoid), MT-2, and HepG2 cells, as described previously (see Schinazi R. F., Sommadossi J.-P., Saalmann V., Cannon D. L., Xie M.-Y., Hart G. C., Smith G. A. & Hahn E. F. Antimicrob. Agents Chemother. 1990, 34, 1061-67). Cycloheximide was included as positive cytotoxic control, and untreated cells exposed to solvent were included as negative controls. The cytotoxicity IC50 was obtained from the concentration-response curve using the median effective method described previously (see Chou T.-C. & Talalay P. Adv. Enzyme Regul. 1984, 22, 27-55; Belen'kii M. S. & Schinazi R. F. Antiviral Res. 1994, 25, 1-11).

Series [2] is described as follows: Cellular toxicity assay in CEM cells. The format is cell-based, human. The settings on record: human. On the procedure:
as §1

Series [3] is described as follows: Cellular toxicity assay in Vero cells. The conditions noted are these: African green monkey. The format is cell-based. On the procedure:
as §1

The nature of series [4]: Cellular toxicity assay in HepG2 cells. The format is cell-based. The settings on record: human. On the procedure:
as §1

The next series deals with wild type HBV. Nature of the series: Anti-HBV assay in AD-38 cell line (HBV in culture supernatant). The format is cell-based. The settings on record: for EC50: read-out: Anti-HBV activity EC50; for EC90: read-out: Anti-HBV activity EC90. On the procedure:
The anti-HBV activity of the compounds was determined by treating the AD-38 cell line carrying wild type HBV under the control of tetracycline (see Ladner S. K., Otto M. J., Barker C. S., Zaifert K., Wang G. H., Guo J. T., Seeger C. & King R. W. Antimicrob. Agents Chemother. 1997, 41, 1715-20). Removal of tetracycline from the medium [Tet (−)] results in the production of HBV. The levels of HBV in the culture supernatant fluids from cells treated with the compounds were compared with that of the untreated controls. Control cultures with tetracycline [Tet (+)] were also maintained to determine the basal levels of HBV expression. 3TC was included as positive control.
The median effective concentrations (EC50) ranges of several of the compounds described herein against HBV are shown in Table 3: […]

In another series the test system is human PBM. Kind of series: Cellular toxicity assay in human PBM cells. The format is cell-based. The settings on record: human PBM cells; read-out: Cytotoxicity; CC50 (μM) PBM. On the procedure:
as §1

A further series relates to HepG2 cells. Kind of series: Cellular toxicity assay in HepG2 cells. The settings on record: HepG2 cells; read-out: Cytotoxicity; CC50 (μM) HepG2. The format is cell-based. How it is done:
as §1

[5] abbreviates: human, human PBM cells, read-out: Cytotoxicity, CC50 (μM) PBM.
The mark [6] stands for this setting: CEM lymphoblastoid cells, CEM cells, read-out: Cytotoxicity, CC50 (μM) CEM.
Where [7] appears, read: Vero cells, read-out: Cytotoxicity, CC50 (μM) VERO.
The mark [8] stands for this setting: HepG2 cells, read-out: Cytotoxicity, CC50 (μM) HepG2.
Setting [9] is: Hepatitis B virus, AD-38 cell line, Tet (-).

Consider `CCOC(=O)C1=C(CNCc2cn(CCCCCCCCn3cc(CNCC4=C(C(=O)OCC)C(c5ccc(F)cc5Br)N=C(c5nccs5)N4)nn3)nn2)NC(c2nccs2)=NC1c1ccc(F)cc1Br` (stereo not drawn) [Compound 17c, Diethyl 6,6′-((((octane-1,8-diylbis(1H-1,2,3-triazole-1,4-diyl))bis(methylene))bis-(azanediyl))bis(methylene))bis(4-(2-bromo-4-fluorophenyl)-2-(thiazol-2-yl)-1,4-dihydropyrimidine-5-carboxylate)], for which the CC50 in series [1] (setting [5]) is 11 µM; in series [2] (setting [6]) it was 7.1 µM; in series [3] (setting [7]) it was > 100 µM; in series [4] (setting [8]), 38.5 µM. Also, the EC50 in the series on wild type HBV (setting [9]) lay within 1000 to 10000 nM. The EC90 in the series with wild type HBV (setting [9]) is 1000 to 10000 nM.

On to `Fc1ccc(C2N=C(c3nccs3)NC(CN3CCOCC3)=C2C#CC2CC2)c(Br)c1` (stereo not drawn) [Compound 17, 4-((6-(2-Bromo-4-fluorophenyl)-5-(cyclopropylethynyl)-2-(thiazol-2-yl)-3,6-dihydropyrimidin-4-yl)methyl)morpholine], for which the CC50 in series [1] (setting [5]) came out at 19 µM; in series [2] (setting [6]), 17 µM; in series [3] (setting [7]) it was 23 µM; in series [4] (setting [8]), 81 µM. In the series with wild type HBV (setting [9]), the concentration for a half-maximal effect (EC50) was 10 to 100 nM. In addition, in the series on wild type HBV (setting [9]), the EC90 was 100 to 1000 nM.

Turning to `Fc1ccc(C2N=C(c3ccccn3)NC(CN3CCOCC3)=C2C#CC2CC2)c(Cl)c1` (stereo not drawn) [Compound 8, 4-((6-(2-Chloro-4-fluorophenyl)-5-(cyclopropylethynyl)-2-(pyridin-2-yl)-3,6-dihydropyrimidin-4-yl)methyl)morpholine], the CC50 in series [1] (setting [5]) was 62 µM; in series [2] (setting [6]) it was 20 µM; in series [3] (setting [7]), 49 µM; in series [4] (setting [8]), 36 µM. Further, the EC50 in the series on wild type HBV (setting [9]) is 100 to 1000 nM. In the series on wild type HBV (setting [9]), the EC90 was 100 to 1000 nM.

As for `CCOC(=O)C1=C(CNCc2cn(CCCCCCCCCCCCn3cc(CNC(=O)C(=O)c4c(C)c(C(=O)Nc5ccc(F)c(F)c5)n(C)c4C)nn3)nn2)NC(c2nccs2)=NC1c1ccc(F)cc1Br` (stereo not drawn) [Compound 23, Ethyl 4-(2-bromo-4-fluorophenyl)-6-((((1-(12-(4-((2-(5-((3,4-difluorophenyl)-carbamoyl)-1,2,4-trimethyl-1H-pyrrol-3-yl)-2-oxoacetamido)methyl)-1H-1,2,3-triazol-1-yl)dodecyl)-1H-1,2,3-triazol-4-yl)methyl)amino)methyl)-2-(thiazol-2-yl)-1,4-dihydropyrimidine-5-carboxylate], the CC50 is > 100 µM in series [1] (setting [5]), 14 µM in series [2] (setting [6]), > 100 µM in series [3] (setting [7]) and 63 µM in series [4] (setting [8]). Further, in the series on wild type HBV (setting [9]), the EC50 lay in the range of 10 to 100 nM. In addition, the EC90 with wild type HBV (setting [9]) was in the range of 100 to 1000 nM.

As to `Cc1c(C(=O)C(=O)NCc2cn(CCOCCOCCOCC(CO)COCCOCCOCCn3cc(CNC(=O)C(=O)c4c(C)c(C(=O)Nc5ccc(F)c(F)c5)n(C)c4C)nn3)nn2)c(C)n(C)c1C(=O)Nc1ccc(F)c(F)c1` [Compound 101, 4,4′-(2,2′-((((11-(Hydroxymethyl)-3,6,9,13,16,19-hexaoxahenicosane-1,21-diyl)bis(1H-1,2,3-triazole-1,4-diyl))bis(methylene))bis(azanediyl))bis(2-oxoacetyl))bis(N-(3,4-difluorophenyl)-1,3,5-trimethyl-1H-pyrrole-2-carboxamide)], the CC50 in the series with human PBM and in the series on HepG2 cells was > 100 µM in each case. The EC50 with wild type HBV (AD-38 cell line, Tet (-)) was 10 to 100 nM.

Turning to `Cc1c(C(=O)C(=O)NCCCB(O)O)c(C)n(C)c1C(=O)Nc1ccc(F)c(F)c1` [Compound 64, (3-(2-(5-((3,4-Difluorophenyl)carbamoyl)-1,2,4-trimethyl-1H-pyrrol-3-yl)-2-oxoacetamido)propyl)boronic acid], the CC50 in series [1] (setting [5]) is 62 µM; in series [2] (setting [6]) it was 26 µM; in series [3] (setting [7]), 76 µM; in series [4] (setting [8]) it was 98 µM. In the series with wild type HBV (setting [9]), the EC50 was 10 to 100 nM. In addition, the EC90 in the series with wild type HBV (setting [9]) fell in the range of 10 to 100 nM.

Take `O=S(=O)(NC1CC2=C(C#CC3CC3)C(c3ccc(F)cc3Cl)N=C(c3nccs3)N2C1)C1CC1` (stereo not drawn) [Compound 45, N-(3-(2-Chloro-4-fluorophenyl)-4-(cyclopropylethynyl)-1-(thiazol-2-yl)-3,5,6,7-tetrahydro-pyrrolo[1,2-c]pyrimidin-6-yl)cyclopropanesulfonamide]: the CC50 in series [1] (setting [5]) is 75 µM; in series [2] (setting [6]), 24 µM; in series [3] (setting [7]) it was > 100 µM; in series [4] (setting [8]), > 100 µM. Besides, in the series on wild type HBV (setting [9]), the EC50 lay in the range of 10 to 100 nM. The EC90 in the series on wild type HBV (setting [9]) lay in the range of 100 to 1000 nM.

On to `Cc1c(C(=O)C(=O)NCCCCCCCCO)c(C)n(C)c1C(=O)Nc1ccc(F)c(F)c1` [Compound 60, N-(3,4-Difluorophenyl)-4-(2-(8-hydroxyoctylamino)-2-oxoacetyl)-1,3,5-trimethyl-1H-pyrrole-2-carboxamide], for which the CC50 in series [1] (setting [5]) turned out to be 36 µM; in series [2] (setting [6]), 4 µM; in series [3] (setting [7]), 14 µM; in series [4] (setting [8]) it was 63 µM. Also, the EC50 in the series with wild type HBV (setting [9]) lay in the range of 10 to 100 nM. Moreover, the EC90 with wild type HBV (setting [9]) was 100 to 1000 nM.

Turning to `O=C(Nc1ccc(F)c(Cl)c1)N1[C@@H]2CC[C@H]1c1c(-c3cscn3)n[nH]c1C2` [Compound 33, (4S,7R)—N-(3-Chloro-4-fluorophenyl)-3-(thiazol-4-yl)-1,4,5,6,7,8-hexahydro-4,7-epiminocyclo hepta[c]pyrazole-9-carboxamide], the CC50 was 32 µM in series [1] (human), 32 µM in series [2], 61 µM in series [3] and 19 µM in series [4]. For the same molecule, the EC50 in the series on wild type HBV (setting [9]) was in the range of 100 to 1000 nM. Besides, in the series on wild type HBV (setting [9]), the EC90 is 1000 to 10000 nM.

Consider `Cc1c(C(=O)C(=O)NCCCN(CCCNC(=O)C(=O)c2c(C)c(C(=O)Nc3ccc(F)c(F)c3)n(C)c2C)CCCNC(=O)C(=O)c2c(C)c(C(=O)Nc3ccc(F)c(F)c3)n(C)c2C)c(C)n(C)c1C(=O)Nc1ccc(F)c(F)c1` [Compound 16a, 4,4′,4″-(2,2′,2″-((Nitrilotris(propane-3,1-diyl))tris(azanediyl))tris(2-oxoacetyl))tris(N-(3,4-difluorophenyl)-1,3,5-trimethyl-1H-pyrrole-2-carboxamide)], for which the CC50 in series [1] (setting [5]) is > 100 µM; in series [2] (setting [6]), > 100 µM; in series [3] (setting [7]), 9 µM; in series [4] (setting [8]) it was > 100 µM. Besides, the EC50 in the series on wild type HBV (setting [9]) is 100 to 1000 nM. The EC90 in the series with wild type HBV (setting [9]) lay within 1000 to 10000 nM.

For `Cc1c(C(=O)C(=O)NCCCB2OC3CC4CC(C4(C)C)C3(C)O2)c(C)n(C)c1C(=O)Nc1ccc(F)c(F)c1` (stereo not drawn) [Compound 62, N-(3,4-difluorophenyl)-1,3,5-trimethyl-4-(2-oxo-2-((3-(3a,5,5-trimethylhexahydro-4,6-methanobenzo[d][1,3,2]dioxaborol-2-yl)propyl)amino)acetyl)-1H-pyrrole-2-carboxamide], the CC50 in series [1] (setting [5]) was 13 µM; in series [2] (setting [6]), 4 µM; in series [3] (setting [7]) it was 7 µM; in series [4] (setting [8]) it was 6 µM. For the same molecule, the EC50 in the series on wild type HBV (setting [9]) was in the range of 10 to 100 nM. In addition, the EC90 with wild type HBV (setting [9]) fell in the range of 10 to 100 nM.

Take `Cc1c(C(=O)C(=O)NCCCCO[P@@](=O)(N[C@@H](C)C(=O)OC(C)C)Oc2ccccc2)c(C)n(C)c1C(=O)Nc1ccc(F)c(F)c1` [Compound 58, Isopropyl ((S)-(4-(2-(5-((3,4-difluorophenyl)carbamoyl)-1,2,4-trimethyl-1H-pyrrol-3-yl)-2-oxoacetamido)butoxy)(phenoxy)phosphoryl)-L-alaninate]: the CC50 was 7 µM in series [1] (human PBM cells, read-out: Cytotoxicity, CC50 (μM) PBM); 10 µM in series [2] (CEM cells, read-out: Cytotoxicity, CC50 (μM) CEM); 12 µM in series [3] (setting [7]); 29 µM in series [4] (setting [8]). Further, in the series on wild type HBV (Hepatitis B virus), the EC50 lay within 100 to 1000 nM. Also, the EC90 in the series on wild type HBV (Hepatitis B virus) lay within 1000 to 10000 nM.

As for `CCOC(=O)C1=C(CNCc2cn(CCOCCOCCOCCOCCOCCn3cc(CNC(=O)C(=O)c4c(C)c(C(=O)Nc5ccc(F)c(F)c5)n(C)c4C)nn3)nn2)NC(c2nccs2)=NC1c1ccc(F)cc1Br` (stereo not drawn) [Compound 50, Ethyl 4-(2-bromo-4-fluorophenyl)-6-((((1-(17-(4-((2-(5-((3,4-difluorophenyl)carbamoyl)-1,2,4-trimethyl-1H-pyrrol-3-yl)-2-oxoacetamido)methyl)-1H-1,2,3-triazol-1-yl)-3,6,9,12,15-pentaoxaheptadecyl)-1H-1,2,3-triazol-4-yl)methyl)amino)methyl)-2-(thiazol-2-yl)-1,4-dihydropyrimidine-5-carboxylate], the CC50 in series [1] (setting [5]) was 99 µM; in series [2] (setting [6]), 27 µM; in series [3] (setting [7]) it was > 100 µM; in series [4] (setting [8]) it was > 100 µM. Moreover, the EC50 in the series on wild type HBV (setting [9]) lay within 100 to 1000 nM. Also, the EC90 with wild type HBV (setting [9]) lay in the range of 1000 to 10000 nM.

These data come from patent publication US20230056135A1, “MONOMER AND MULTIMERIC ANTI-HBV AGENTS” (priority 2018, published 2023).
